Where “and” joins values, the source holds several entries; their conditions need not be identical. Equal values may be shown once. Where a name gives a salt, the structure may show the parent alone. Read-outs that look alike come from different tables or passages of the source.
Assays:
[1] = target: T1, AChE (Homo sapiens, UniProt P22303); assay type: biochemical
Source text: (§1) The Lineweaver–Burk plots (plots of the inverse of velocity against the inverse of the substrate concentration) were used to ascertain the mode of inhibition of these compounds. The Dixon plots of the inverse of velocity (1/v) against the concentration of the inhibitor at each concentration of substrate were used to determine their inhibitor constants (Ki).

[2] = tested on: breast cancer MCF-7 cell line; assay: MTT antigrowth assay, MCF-7; assay type: cell-based; conditions: preliminary results, read-out: IC50 antigrowth effect, MCF-7
Method: (§2) Briefly, the Hek293-T cells and MCF-7 cancer cells were seeded in a 96-well plate at a density of 20 × 10^3 cells per well, and then incubated at 37 °C in 5% CO2 to allow cell attachment. The medium was removed and replaced with fresh medium containing various concentrations of the test sample and doxorubicin hydrochloride (10, 25, 50, 100, and 200 μM) and incubated for 24 h. After treatment for 24 h, 10 μL MTT (5 mg/mL) was added to each well and the plate was further incubated for 4 h. The supernatant was removed, and 100 μL of DMSO was added to each well to dissolve the resulting formazan crystals. The absorbance was read at 570 nm using the Varioskan flash microplate spectrophotometer reader and the cell viability. The percentages of cell viability were used to determine the IC50 values.

[3] = target: T2, BACE-1 (Homo sapiens, UniProt P56817); assay: Kinetic study against β-secretase (Lineweaver-Burk and Dixon plots); assay type: biochemical
T2 construct: purchased Pan Vera; host or cells: baculovirus expression
Source text: The Lineweaver–Burk plot (plot of the inverse of velocity (1/v) against the inverse of the substrate concentration (1/[S])) was used to ascertain the mode of inhibition of this compound.

[4] = target: T3, BChE (Homo sapiens, UniProt P06276); assay: biochemical; conditions: Ellman's method, triplicate
T3 construct: purchased Cloud-Clone Corp., through BIOCOM Africa (Pty) Ltd RPC348Hu0 2_100
Method: Their anti-AChE and BChE activities were determined by spectrophotometric Ellman’s method [42]. […] The mixtures were incubated for 15 min at RT. The reaction was initiated by adding 10 µL of a mixture solution of 5 mM 5,50-dithio-bis-nitrobenzoic acid (DTNB) in 50 mM tris buffer (pH 7.7) and 10 µL acetylthiocholine (ASCh) (5 mM) in 50 mM tris buffer, pH 7.7. The hydrolysis of ASCh was determined by monitoring the formation of the yellow 5-thio-2-nitrobenzoate anion resulting from reaction of DTNB with thiocholines (SCh).
The IC50 values were determined graphically from inhibition curves (inhibitor concentration and absorbance) using the graph pad prism.

[5] = target: T2, BACE-1; assay: β-Secretase FRET inhibition assay; assay type: biochemical; conditions: pH 4.5, 60 min at 25 °C, triplicate
[6] = target: T1, AChE; assay: biochemical; conditions: for Selectivity index (SI): SI = IC50 (AChE)/IC50 (BChE); for IC50: recombinant human AChE, Ellman's method, triplicate
[7] = DPPH radical scavenging assay; conditions: 45 min in the dark, triplicate
Method: The DPPH radical scavenging activity of compounds 2a–i and 3a–i was evaluated following the literature method by Zhu et al.. The compounds were evaluated against ascorbic acid (Sigma Aldrich, Saint Louis, Missouri, USA) as a positive control. Various concentrations of the test compounds and control (0 µM to 40 µM) in DMSO were mixed with a solution of DPPH (0.20 mM) in methanol. The mixtures were incubated in the dark for 45 min and then the absorbances were recorded at 512 nm using Varioskan flash microplate spectrophotometer reader. All tests and analyses were run in triplicate and averaged. The inhibition was calculated in terms of percentage using the formula below: DPPH radical scavenged (%)=AbC − AbS/AbC×100 where AbC is absorbance of control and AbS the absorbance of the test sample.

[8] = target: T4, soybean lipoxygenases-15 (LOX-15) (Glycine max, UniProt P08170); assay: Soybean LOX-15 inhibitory assay; assay type: biochemical
T4 construct: purchased Cayman Chemicals 760700
T4 sequence (P08170 1-839): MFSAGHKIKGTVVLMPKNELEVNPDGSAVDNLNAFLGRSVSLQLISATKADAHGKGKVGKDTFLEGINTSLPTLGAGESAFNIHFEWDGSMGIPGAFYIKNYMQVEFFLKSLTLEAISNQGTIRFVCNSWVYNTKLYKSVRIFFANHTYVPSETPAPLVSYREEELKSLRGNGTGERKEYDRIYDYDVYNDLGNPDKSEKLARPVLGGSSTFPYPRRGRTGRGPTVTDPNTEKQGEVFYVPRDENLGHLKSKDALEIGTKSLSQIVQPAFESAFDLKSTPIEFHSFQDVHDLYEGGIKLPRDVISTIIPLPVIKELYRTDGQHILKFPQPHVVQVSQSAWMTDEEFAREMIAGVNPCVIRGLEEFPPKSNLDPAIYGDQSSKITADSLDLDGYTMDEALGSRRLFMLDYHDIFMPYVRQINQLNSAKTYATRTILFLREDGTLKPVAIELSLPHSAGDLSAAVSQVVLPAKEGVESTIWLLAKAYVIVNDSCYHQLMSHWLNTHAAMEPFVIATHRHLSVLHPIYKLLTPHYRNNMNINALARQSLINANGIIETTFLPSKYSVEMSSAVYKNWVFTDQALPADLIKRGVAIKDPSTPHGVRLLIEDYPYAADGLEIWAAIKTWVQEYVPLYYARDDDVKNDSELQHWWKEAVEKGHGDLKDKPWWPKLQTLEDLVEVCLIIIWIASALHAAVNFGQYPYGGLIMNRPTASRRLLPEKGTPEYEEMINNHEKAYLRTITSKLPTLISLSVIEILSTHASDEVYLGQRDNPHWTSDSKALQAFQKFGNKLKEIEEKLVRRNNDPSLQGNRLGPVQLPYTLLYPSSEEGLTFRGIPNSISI
Method: Stock solutions of the test samples prepared in DMSO were further diluted with 50 mM Tris buffer of pH 7.7 to obtain concentrations of 0.01, 0.1, 1, 10, and 100 µM. The cells of a 96-well plate where arranged as follows: two wells taken as blanks (100 µL 50mM Tris buffer pH, 7.7), two wells taken as enzyme controls (90 µL of 15-LO Standard and 10 µL of DMSO), and two as 100% initial activity wells (90 µL lipoxygenase enzyme solution and 10 µL tris buffer). Then, 90 µL of lipoxygenase enzyme solution and 10 µL of each test compound (and reference standards) from the above concentrations were added to the other wells of a 96-well plate, and the plate was incubated for 5 min at room temperature. The reaction was initiated by addition of 10 µL of the arachidonic acid to each well containing the assay mixtures. The 96-well plate was shaken for 5 min on a shaker, and 100 µL of the chromogen (solution of equal volume developing reagent 1 and 2) was added to each well to initiate the reaction. The plate was again shaken for 5 min and the absorbance read at 490 nm in a Varioskan flash microplate spectrophotometer reader. The inhibitory concentration was expressed as a percentage using the formula below. Inhibitory concentration = AInitial activity −(ASample − ABlank sample)/AInitial activity×100 where ASample is the absorbance of the reaction mixture of the test sample, ABlank sample is the absorbance of the reaction mixture containing all reagents except enzyme, and AInitial activity is the absorbance of 100% initial activity.

[9] = tested on: Hek293-T cells; assay: MTT cytotoxicity assay, Hek293-T; conditions: up to a concentration of 50 μM
Method: as §2

[10] = target: T5, human LOX-5 (Homo sapiens, UniProt P09917); assay: Human LOX-5 inhibitory assay; assay type: biochemical
T5 construct: purchased BioVision K980
T5 sequence (P09917 1-674): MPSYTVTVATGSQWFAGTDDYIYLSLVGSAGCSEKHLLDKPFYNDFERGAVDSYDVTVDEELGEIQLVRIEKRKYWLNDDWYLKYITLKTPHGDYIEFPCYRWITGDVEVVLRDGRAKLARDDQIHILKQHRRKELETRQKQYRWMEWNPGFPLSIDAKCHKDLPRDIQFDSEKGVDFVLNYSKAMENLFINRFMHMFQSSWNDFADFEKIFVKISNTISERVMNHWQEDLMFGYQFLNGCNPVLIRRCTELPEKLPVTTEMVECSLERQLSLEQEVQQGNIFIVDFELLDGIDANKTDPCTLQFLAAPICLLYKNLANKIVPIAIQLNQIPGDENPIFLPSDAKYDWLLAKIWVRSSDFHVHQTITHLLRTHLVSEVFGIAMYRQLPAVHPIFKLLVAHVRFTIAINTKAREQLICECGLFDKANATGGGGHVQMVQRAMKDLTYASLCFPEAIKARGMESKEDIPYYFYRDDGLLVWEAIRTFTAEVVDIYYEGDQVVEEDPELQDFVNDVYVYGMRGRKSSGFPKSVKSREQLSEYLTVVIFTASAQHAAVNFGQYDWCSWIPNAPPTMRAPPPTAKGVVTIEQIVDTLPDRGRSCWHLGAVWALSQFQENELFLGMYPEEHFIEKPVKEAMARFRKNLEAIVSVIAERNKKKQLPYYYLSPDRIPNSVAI
Method: The reagents were prepared according to the Lipoxygenase inhibitor screening kit (Item No. K980; BioVision, Milpitas Blvd, Milpitas, CA, USA) standard protocol. Stock solutions of the test compounds were prepared in DMSO, and further diluted with 50 mM Tris HCl buffer (pH 7.7) to obtain final concentrations of 0.01, 0.1, 1, 5, and 10 µM. […] The wells of a 96-well plate were arranged as follows: two wells were taken as blanks (40 µL of assay buffer) and two as enzyme controls (2 µL of LOX-5 Standard and 38 µL of tris buffer). Two microliters (2 µL) of the test compounds (various concentration of test compounds and reference standards, respectively) followed by 38 µL of LOX assay buffer were added to the other wells of the 96-well plate in duplicate. Then, 40 µL of the reaction mixture (prepared by mixing thoroughly 36 µL of LOX assay buffer, 2 µL of LOX probe and 2 µL of LOX-5 enzyme) was added to each well containing the test mixtures, and the wells were incubated for 10 min at RT. The DMSO concentration in each reaction well was 1% to prevent enzyme structural deformation and, therefore, reduced activity. […] The percentage inhibition (%) was calculated using the equation below.
% Inhibition = Control − Test/Control×100

[11] = target: T3, BChE; assay type: biochemical
Source text: as §1

[12] = target: T6, COX-2 (Homo sapiens, UniProt P35354); assay: biochemical; conditions: duplicate runs
T6 construct: purchased Bio Vision K547
T6 sequence (P35354 18-604): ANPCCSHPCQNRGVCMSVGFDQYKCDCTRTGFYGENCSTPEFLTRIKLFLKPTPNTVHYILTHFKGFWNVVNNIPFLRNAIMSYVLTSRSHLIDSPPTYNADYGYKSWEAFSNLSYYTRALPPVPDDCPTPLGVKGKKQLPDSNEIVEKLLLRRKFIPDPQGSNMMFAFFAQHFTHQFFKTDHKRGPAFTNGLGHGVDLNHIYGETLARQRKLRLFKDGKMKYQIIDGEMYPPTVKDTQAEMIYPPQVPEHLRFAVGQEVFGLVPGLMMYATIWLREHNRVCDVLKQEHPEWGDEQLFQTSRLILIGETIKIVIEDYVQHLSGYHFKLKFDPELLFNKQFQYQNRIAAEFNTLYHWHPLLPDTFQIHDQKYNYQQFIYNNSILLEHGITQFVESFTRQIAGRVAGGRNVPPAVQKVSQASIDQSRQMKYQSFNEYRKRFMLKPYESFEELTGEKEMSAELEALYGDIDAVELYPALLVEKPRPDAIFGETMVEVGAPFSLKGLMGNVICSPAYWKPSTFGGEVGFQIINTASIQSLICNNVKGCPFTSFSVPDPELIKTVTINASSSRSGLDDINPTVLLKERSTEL
Method: The reagents for the COX-2 assay were prepared according to the standard protocol enclosed in the Cyclooxygenase inhibitor screening kit (Item No. K547; Bio Vision, Milpitas Blvd, Milpitas, CA USA). […] The assay mixtures in a 96-well plate were distributed as follows: two wells taken as enzyme control (10µL assay buffer) and two wells as inhibitor control (2 µL of celecoxib and 8 µL of COX assay buffer). Ten microliters of the test compounds concentrations and those of celecoxib were added to the remaining wells with the aid of a multi-channel pipette. Then, 80 µL of the reaction mix (a mixture of 76 µL COX assay buffer, 1 µL of COX probe, 2 µL of diluted COX cofactor and 1 µL of COX-2 enzyme) were added to the reaction mixture. The assay mixtures in the 96-well plate were incubated for 5 min. The reactions were initiated by the addition of 10 µL of diluted arachidonic acid and sodium hydroxide solution (10 µL of arachidonic acid and 90 µL of sodium hydroxide) to each well. The absorbance was measured using a Varioskan flash microplate spectrophotometer, and the IC50 was calculated with the aid of a graph pad prism

[13] = Lineweaver-Burk and Dixon plots

T1 sequence (P22303 32-614): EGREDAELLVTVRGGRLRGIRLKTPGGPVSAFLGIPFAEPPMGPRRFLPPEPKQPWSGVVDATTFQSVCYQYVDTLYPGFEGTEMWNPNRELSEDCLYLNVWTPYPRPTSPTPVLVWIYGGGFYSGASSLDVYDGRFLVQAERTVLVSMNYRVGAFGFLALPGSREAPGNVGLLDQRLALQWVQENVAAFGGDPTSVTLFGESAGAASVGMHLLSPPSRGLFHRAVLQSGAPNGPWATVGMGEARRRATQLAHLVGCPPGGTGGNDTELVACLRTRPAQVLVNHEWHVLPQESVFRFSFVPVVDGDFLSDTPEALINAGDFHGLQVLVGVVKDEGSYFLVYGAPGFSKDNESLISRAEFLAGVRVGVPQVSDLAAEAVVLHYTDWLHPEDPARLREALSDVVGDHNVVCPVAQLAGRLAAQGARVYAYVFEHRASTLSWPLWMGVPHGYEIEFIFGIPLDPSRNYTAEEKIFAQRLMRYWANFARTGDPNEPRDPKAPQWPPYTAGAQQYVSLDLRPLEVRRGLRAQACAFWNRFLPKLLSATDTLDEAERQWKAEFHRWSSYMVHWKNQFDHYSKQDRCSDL
T2 sequence (P56817 46-501): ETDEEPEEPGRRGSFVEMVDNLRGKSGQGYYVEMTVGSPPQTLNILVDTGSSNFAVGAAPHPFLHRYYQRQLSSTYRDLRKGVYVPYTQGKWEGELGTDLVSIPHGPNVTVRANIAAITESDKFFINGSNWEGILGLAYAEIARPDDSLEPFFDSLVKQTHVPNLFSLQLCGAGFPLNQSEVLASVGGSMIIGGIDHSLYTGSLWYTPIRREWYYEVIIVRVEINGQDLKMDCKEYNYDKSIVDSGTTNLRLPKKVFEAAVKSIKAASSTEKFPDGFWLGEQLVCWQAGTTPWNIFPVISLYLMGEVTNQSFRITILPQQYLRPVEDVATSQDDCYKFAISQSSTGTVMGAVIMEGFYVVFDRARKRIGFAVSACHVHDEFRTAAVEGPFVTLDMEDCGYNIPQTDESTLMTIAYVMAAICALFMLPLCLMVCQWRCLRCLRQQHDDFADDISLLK
T3 sequence (P06276 29-602): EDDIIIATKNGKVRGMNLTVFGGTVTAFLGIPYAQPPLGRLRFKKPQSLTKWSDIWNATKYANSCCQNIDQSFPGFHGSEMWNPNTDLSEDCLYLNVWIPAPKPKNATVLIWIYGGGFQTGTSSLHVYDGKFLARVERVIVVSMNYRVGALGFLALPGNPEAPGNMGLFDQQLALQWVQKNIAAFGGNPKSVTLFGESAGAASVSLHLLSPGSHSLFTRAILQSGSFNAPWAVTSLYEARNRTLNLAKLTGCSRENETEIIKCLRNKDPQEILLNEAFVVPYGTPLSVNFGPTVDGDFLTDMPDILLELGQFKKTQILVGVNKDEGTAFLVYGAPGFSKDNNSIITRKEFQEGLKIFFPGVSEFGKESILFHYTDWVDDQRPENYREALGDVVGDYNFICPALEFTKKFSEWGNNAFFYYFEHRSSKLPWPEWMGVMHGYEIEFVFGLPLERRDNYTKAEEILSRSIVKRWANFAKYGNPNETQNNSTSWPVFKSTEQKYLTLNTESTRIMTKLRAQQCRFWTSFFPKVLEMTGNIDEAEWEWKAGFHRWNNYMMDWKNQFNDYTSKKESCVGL

Compound	IC50 [4] [µM]	Selectivity index (SI) [6]	IC50 [6]	IC50 [7] [µM]	IC50 [12] [µM]	IC50 [8] [µM]	further results
2-(4-Chlorophenyl)-6-[(4-trifluoromethylphenyl)hydrazonomethyl]furo[3,2-h]chromen-5-one [Compound 3e]	9.9 ± 0.04	0.5	5.4 ± 0.02 µM	25.9 ± 0.05	10.4 ± 0.03	–	Ki ([1]; Dixon plot): 1.6 ± 0.01 µM; Mode of inhibition, AChE [1, 13]: non-competitive mode of inhibition; IC50 ([2]; 24 h treatment): 6.82 ± 0.02 µM; Ki ([3]; Dixon plot, substrate 150, 300 and 450 nM): 2.5 ± 0.01 µM; Mode of inhibition, BACE-1 [3, 13]: mixed mode of inhibition; IC50 [5]: 13.6 ± 0.02 µM; IC50 ([8]; soybean LOX-15, duplicate runs, read-out: IC50 LOX-15): 14.9 ± 0.04 µM; Toxicity in Hek293-T cells [9]: non-toxic; IC50 ([10]; human LOX-5, duplicate, read-out: IC50 LOX-5): 28.5 ± 0.02 µM; Ki ([11]; Dixon plot): 1.92 ± 0.01 µM; Mode of inhibition, BChE [11, 13]: non-competitive mode of inhibition
O=C1O[C@H]([C@@H](O)CO)C(O)=C1O [Ascorbic acid, ascorbic acid, reference compound]	–	–	–	4.6 ± 0.01	–	–	–
O=Cc1coc2c(ccc3oc(-c4ccccc4)cc32)c1=O [Compound 2a, 4-Oxo-8-phenyl-4H-furo[2,3-h]chromene-3-carbaldehyde]	34.2 ± 0.02	0.8	25.1 ± 0.04 µM	10.1 ± 0.03	25.6 ± 0.01	12.5 ± 0.03	–
O=Cc1coc2c(ccc3oc(-c4cccc(F)c4)cc32)c1=O [Compound 2b, 8-(3-Fluorophenyl)-4-oxo-4H-furo[2,3-h]chromene-3-carbaldehyde]	9.2 ± 0.01	1.7	15.2 ± 0.03 µM	27.6 ± 0.02	43.7 ± 0.01	18.6 ± 0.01	–
O=Cc1coc2c(ccc3oc(-c4ccc(F)cc4)cc32)c1=O [Compound 2c, 8-(4-Fluorophenyl)-4-oxo-4H-furo[2,3-h]chromene-3-carbaldehyde]	28.3 ± 0.03	1.1	30.4 ± 0.01 µM	7.5 ± 0.02	15.8 ± 0.03	14.3 ± 0.01	–
O=Cc1coc2c(ccc3oc(-c4cccc(Cl)c4)cc32)c1=O [Compound 2d, 8-(3-Chlorophenyl)-4-oxo-4H-furo[2,3-h]chromene-3-carbaldehyde]	13.2 ± 0.05	1.5	19.2 µM and 19.8 µM	29.1 ± 0.01	23.1 ± 0.02	22.9 ± 0.02	–
O=Cc1coc2c(ccc3oc(-c4ccc(Cl)cc4)cc32)c1=O [Compound 2e, 8-(4-Chlorophenyl)-4-oxo-4H-furo[2,3-h]chromene-3-carbaldehyde]	32.6 ± 0.02	0.8	27.1 ± 0.04 µM	19.9 ± 0.01	18.6 ± 0.01	15.2 ± 0.04	–
COc1ccc(-c2cc3c(ccc4c(=O)c(C=O)coc43)o2)cc1 [Compound 2f, 8-(4-Methoxyphenyl)-4-oxo-4H-furo[2,3-h]chromene-3-carbaldehyde]	21.8 ± 0.02	1.6	34.2 ± 0.02 µM	14.3 ± 0.02	13.7 ± 0.04	8.2 ± 0.03	IC50 [10]: 17.3 ± 0.01 µM
COc1cc(OC)cc(-c2cc3c(ccc4c(=O)c(C=O)coc43)o2)c1 [Compound 2g, 8-(3,5-Dimethoxyphenyl)-4-oxo-4H-furo[2,3-h]chromene-3-carbaldehyde]	23.2 ± 0.04	1.1	25.3 ± 0.02 µM	8.3 ± 0.02	23.5 ± 0.03	10.6 ± 0.04	IC50 [10]: 24.6 ± 0.02 µM
Cc1ccc(-c2cc3c(ccc4c(=O)c(C=O)coc43)o2)cc1 [Compound 2h, 8-(4-Methyphenyl)-4-oxo-4H-furo[2,3-h]chromene-3-carbaldehyde]	25.9 ± 0.03	0.8	20.9 ± 0.01 µM	11.6 ± 0.03	19.8 ± 0.03	9.2 ± 0.03	IC50 [10]: 28.7 ± 0.03 µM
O=Cc1coc2c(ccc3oc(C4=CCCCC4)cc32)c1=O [Compound 2i, 8-(Cyclohex-1-en-1-yl)-4-oxo-4H-furo[2,3-h]chromene-3-carbaldehyde]	31.6 ± 0.02	0.5	15.3 ± 0.03 µM	15.9 ± 0.02	12.1 ± 0.01	21.5 ± 0.02	–
O=c1c(C=NNc2ccc(C(F)(F)F)cc2)coc2c1ccc1oc(-c3ccccc3)cc12 [Compound 3a]	18.7 ± 0.03	0.8	15.4 ± 0.01 µM	15.3 ± 0.01	29.7 ± 0.02	16.3 ± 0.01	–
O=c1c(C=NNc2ccc(C(F)(F)F)cc2)coc2c1ccc1oc(-c3cccc(Cl)c3)cc12 [Compound 3d]	30.1 ± 0.03	0.8	24.3 ± 0.03 µM	32.5 ± 0.03	30.2 ± 0.03	11.8 ± 0.03	–
Cc1ccc(-c2cc3c(ccc4c(=O)c(C=NNc5ccc(C(F)(F)F)cc5)coc43)o2)cc1 [Compound 3h]	14.2	0.6	9.1 ± 0.02 µM	16.3 ± 0.03	22.4 ± 0.01	18.6 ± 0.03	–
COc1cccc2c1C(=O)c1c(O)c3c(c(O)c1C2=O)C[C@@](O)(C(=O)CO)C[C@@H]3O[C@H]1C[C@H](N)[C@H](O)[C@H](C)O1 [doxorubicin hydrochloride, reference compound]	–	–	–	–	–	–	IC50 ([2]; Homo sapiens, MCF7, 24 h treatment): 1.59 ± 0.01 µM

Source: PMC6920776, “Exploring Biological Activity of 4-Oxo-4H-furo[2,3-h]chromene Derivatives as Potential Multi-Target-Directed Ligands Inhibiting Cholinesterases, β-Secretase, Cyclooxygenase-2, and Lipoxygenase-5/15” (Biomolecules, 2019)
